Assay results published in patent publication US20080009511A1, “Cancer treatment with compounds inhibiting PKC alpha” (priority 2004, published 2008).

Legend:
[1] = tested on: A431 human epidermoid carcinoma cells; experiment: Cell viability assay (trypan blue dye exclusion), viable cells counted at day 6; assay type: cell-based; conditions: 10 micromoles; for Treated (cell number × 10^5): about 4×10^4 cells seeded, untreated 5.4 ± 0.4; for % inhibiton: growth vs untreated
Description: (§1) The following cancer cells were maintained in Dulbecco's modified Eagle medium (DMEM) supplemented with 10 percent bovine calf serum. Cells were seeded for 24 hours. Then they were treated with PKC inhibitors or left untreated. The cells were then collected periodically and evaluated using trypan blue dye exclusion to assess viability using the method described by C Y Chen, et al., in J. Biol. Chem. 273:16700-16709. Cultures containing about 4×10^4 cells were treated with 5 micromoles of Gö7874 (except that PC3 prostate cancer cells were treated with 10 micromoles) and the viable cells were counted at day 6. […] Cultures containing about 4×10^4 cells were treated with or without 10 micromoles of Gö6850 and the viable cells were counted at day 6. […] Cultures containing about 4×10^4 cells were treated with or without 10 micromoles of NGIC-I and the viable cells were counted at day 6. […] Cultures containing about 4×10^4 cells were treated with or without 10 micromoles of Ro31-7549 and the viable cells were counted at day 6. […] Cultures containing about 4×10^4 cells were treated with or without 10 micromoles of Ro31-8220 and the viable cells were counted at day 6. […] Cultures containing about 4×10^4 cells were treated with or without 10 micromoles of Ro31-8425 and the viable cells were counted at day 6. […] Cultures containing about 4×10^4 cells were treated with or without 10 micromoles of Ro31-0432 and the viable cells were counted at day 6.

[2] = tested on: AGS human gastric cancer cells; experiment: as above; assay type: cell-based; conditions: 10 micromoles; for Treated (cell number × 10^5): about 4×10^4 cells seeded, untreated 2.4 ± 0.3; for % inhibiton: growth vs untreated
Description: as §1

[3] = tested on: H460 human lung cancer cells; experiment: as above; assay type: cell-based; conditions: 10 micromoles; for Treated (cell number × 10^5): about 4×10^4 cells seeded, untreated 2.4 ± 0.2; for % inhibiton: growth vs untreated
Description: as §1

[4] = tested on: HT29 human colon cancer cells; experiment: as above; assay type: cell-based; conditions: 10 micromoles; for Treated (cell number × 10^5): about 4×10^4 cells seeded, untreated 3.8 ± 0.4; for % inhibiton: growth vs untreated
Description: as §1

[5] = tested on: Hela human cervical cancer cells; experiment: as above; assay type: cell-based; conditions: 10 micromoles; for Treated (cell number × 10^5): about 4×10^4 cells seeded, untreated 3.4 ± 0.4; for % inhibiton: growth vs untreated
Description: as §1

[6] = tested on: HepG2 human liver cancer cells; experiment: as above; assay type: cell-based; conditions: 10 micromoles; for Treated (cell number × 10^5): about 4×10^4 cells seeded, untreated 4.2 ± 0.4; for % inhibiton: growth vs untreated
Description: as §1

[7] = tested on: Jurkat cells (a human acute T-cell leukemia cell line); experiment: as above; assay type: cell-based; conditions: 10 micromoles; for Treated (cell number × 10^5): about 4×10^4 cells seeded, untreated 8.8 ± 0.4; for % inhibiton: growth vs untreated
Description: as §1

[8] = tested on: MDA-MB-468 human breast cancer cells; experiment: as above; assay type: cell-based; conditions: 10 micromoles; for % inhibiton: growth vs untreated
Description: as §1

[9] = tested on: NBT-II human bladder cancer cells; experiment: as above; assay type: cell-based; conditions: 10 micromoles; for Treated (cell number × 10^5): about 4×10^4 cells seeded, untreated 2.9 ± 0.4; for % inhibiton: growth vs untreated
Description: as §1

[10] = tested on: PANC-1 human pancreatic carcinoma cells; experiment: as above; assay type: cell-based; conditions: 10 micromoles; for Treated (cell number × 10^5): about 4×10^4 cells seeded, untreated 2.1 ± 0.3; for % inhibiton: growth vs untreated
Description: as §1

[11] = tested on: PC3 human prostate cancer cells; experiment: as above; assay type: cell-based; conditions: 10 micromoles; for Treated (cell number × 10^5): about 4×10^4 cells seeded, untreated 7.1 ± 0.3; for % inhibiton: growth vs untreated
Description: as §1

[12] = tested on: U251 human glioma cells; experiment: as above; assay type: cell-based; conditions: 10 micromoles; for Treated (cell number × 10^5): about 4×10^4 cells seeded, untreated 9.6 ± 0.5; for % inhibiton: growth vs untreated
Description: as §1

[13] = tested on: KB oral cancer cells; experiment: as above; assay type: cell-based, human; conditions: 10 micromoles; for Treated (cell number × 10^5): about 4×10^4 cells seeded, untreated 3.8 ± 0.4; for % inhibiton: growth vs untreated
Description: as §1

[14] = tested on: human cancer cells; experiment: Cell viability assay, summary over the panel of cancer cells; assay type: cell-based; conditions: 10 micromoles; day 6; cell lines not named as going to apoptosis
Description: The following cancer cells were maintained in Dulbecco's modified Eagle medium (DMEM) supplemented with 10 percent bovine calf serum. Cells were seeded for 24 hours. Then they were treated with PKC inhibitors or left untreated. The cells were then collected periodically and evaluated using trypan blue dye exclusion to assess viability using the method described by C Y Chen, et al., in J. Biol. Chem. 273:16700-16709. Cultures containing about 4×10^4 cells were treated with or without 10 micromoles of Gö6850 and the viable cells were counted at day 6. […] Cultures containing about 4×10^4 cells were treated with or without 10 micromoles of NGIC-I and the viable cells were counted at day 6. […] Cultures containing about 4×10^4 cells were treated with or without 10 micromoles of Ro31-7549 and the viable cells were counted at day 6. […] Cultures containing about 4×10^4 cells were treated with or without 10 micromoles of Ro31-8220 and the viable cells were counted at day 6. […] Cultures containing about 4×10^4 cells were treated with or without 10 micromoles of Ro31-8425 and the viable cells were counted at day 6. […] Cultures containing about 4×10^4 cells were treated with or without 10 micromoles of Ro31-0432 and the viable cells were counted at day 6.

| Compound | Treated (cell number × 10^5) [1] | % inhibiton [1] [%] | Treated (cell number × 10^5) [2] | % inhibiton [2] [%] | Treated (cell number × 10^5) [3] | % inhibiton [3] [%] | Treated (cell number × 10^5) [4] | % inhibiton [4] [%] | Treated (cell number × 10^5) [5] | % inhibiton [5] | Treated (cell number × 10^5) [6] | % inhibiton [6] [%] | Treated (cell number × 10^5) [7] | % inhibiton [7] | % inhibiton [8] [%] | Treated (cell number × 10^5) [9] | % inhibiton [9] [%] | Treated (cell number × 10^5) [10] | % inhibiton [10] [%] | Treated (cell number × 10^5) [11] | also measured |
| --- | --- | --- | --- | --- | --- | --- | --- | --- | --- | --- | --- | --- | --- | --- | --- | --- | --- | --- | --- | --- | --- |
| N#CCCn1c2ccccc2c2c3c(c4c5ccccc5[nH]c4c21)C(=O)NC3 [NGIC-I, 12-propanenitrile,5,6,7,13-tetrahydro-5-oxo-12H-Indolo[2,3-a]pyrrolo[3,4-c]carbazole] | 2.7 × 10^5 | 49 | 1.7 × 10^5 | 30 | 1.6 × 10^5 | 32 | 3.2 × 10^5 | 15 | 0.3 × 10^5 | * (indicates the inhibitor causes significant cell death, and cell number is less than originally seeded cell number.) | 0.9 × 10^5 | 78 | 0.2 × 10^5 | * (indicates the inhibitor causes significant cell death, and cell number is less than originally seeded cell number.) | 78 | 0.9 × 10^5 | 73 | 1.2 × 10^5 | 44 | 3.7 × 10^5 | originally seeded cells survived [5]: 75%; originally seeded cells survived [7]: About 50%; % inhibiton [11]: 48%; Treated (cell number × 10^5) [12]: 1.6 × 10^5; % inhibiton [12]: 82%; cells that went to apoptosis upon treatment [13]: all; Treated (cell number × 10^5) [13]: 0 × 10^5; % inhibiton [13]: * (indicates the inhibitor causes significant cell death, and cell number is less than originally seeded cell number.); inhibition of growth in contrast to untreated cells, range over the other treated cancer cells [14]: 25-82% |
| CN(C)CCCn1cc(C2=C(c3c[nH]c4ccccc34)C(=O)NC2=O)c2ccccc21 [Gö6850, 2-[1-(3-Dimethylaminopropyl)-1H-indol-3-yl]-3-(1H-indol-3-yl)-maleimide] | 4.1 × 10^5 | 24 | 1.5 × 10^5 | 34 | 1.6 × 10^5 | 31 | 2.4 × 10^5 | 22 | 0.3 × 10^5 | * (indicates the inhibitor causes significant cell death, and cell number is less than originally seeded cell number.) | 2.4 × 10^5 | 41 | 4.1 × 10^5 | 53% | 25 | 1.3 × 10^5 | 57 | 1.4 × 10^5 | 30 | 2.8 × 10^5 | cell numbers of treated cells [5]: significantly reduced cell numbers; Treated (cell number × 10^5) ([8]; about 4×10^4 cells seeded, untreated 6.1 ± 0.4): 4.6 ± 0.2 × 10^5; % inhibiton [11]: 60%; Treated (cell number × 10^5) [12]: 7.2 × 10^5; % inhibiton [12]: 23%; Treated (cell number × 10^5) [13]: 1.7 × 10^5; % inhibiton [13]: 55%; inhibition of growth in contrast to untreated cells, range over the other treated cancer cells [14]: 25-60% |
| CN(C)CC1CCn2c(c(C3=C(c4cn(C)c5ccccc45)C(=O)NC3=O)c3ccccc32)C1.Cl (centres unmarked) [Ro31-0432] | 4.2 × 10^5 | 21 | 1.7 × 10^5 | 30 | 1.3x ± × 10^5 | 48 | 3.0 × 10^5 | 19 | 1.3 × 10^5 | 60% | 2.4 × 10^5 | 43 | 1.4 × 10^5 | 81% | 30 | 2.3 × 10^5 | 19 | 1.2 ± 0.1 × 10^5 | 31 | 6.0 × 10^5 | % inhibiton [11]: 15%; Treated (cell number × 10^5) [12]: 9.2 × 10^5; % inhibiton [12]: 10%; Treated (cell number × 10^5) [13]: 2.1 × 10^5; % inhibiton [13]: 44%; inhibition of growth in contrast to untreated cells, range over the other treated cancer cells [14]: 10-60% |
